Patent US9789096B2, “Methods and compositions for selective and targeted cancer therapy” (Board of Regents of the University of Texas System, priority 2013, dated 2017)
Where two headings read alike, the source gives them in different places.

Columns and labels:
Format in all cases: cell-based, human
HCC44 = assay: Cell viability dose-response, HCC44; conditions: Homo sapiens; for AC50: HCC44, Table 8, 12-point dose-response starting at 50 micromolar
Protocol: (§1) FIG. 6A. […] Cell viability is plotted vs. compound concentration. Compound was added to cells plated at 15% confluence in 96-well plates in RPMI-1640 media supplemented with 5% Fetal Bovine Serum and 2 mM L-Glutamine. After 4 days of incubation, ATP levels were measured using Cell Titer Glo (Promega). Data are presented as the average of 2 replicates ±SEM.
(§2) Selectivity may be measured by the half maximal inhibitory concentration (IC50), which, as used herein, is a measure of the effectiveness of a compound in killing cells. This quantitative measure indicates how much of a particular compound is needed to kill a particular cell population by half (e.g., as indicated by the amount of ATP). […] The IC50 can be determined by constructing a dose-response curve. The lower the IC50, the higher the potency, and the greater the difference between IC50 values for different cell lines (e.g., sensitive lines vs. insensitive lines, and sensitive lines vs. normal lines) the greater the selectivity. […]
(§3) With this information, we synthesized and tested a series of small molecules derived in conception from the oxalamide and chromone scaffold including N-acyl ureas, as shown in Tables 6-8. Each compound was tested in a 12-point dose-response study starting at 50 micromolar and decreasing in 3-fold increments to sub-nanomolar concentrations, in duplicate. Additionally, one or more additional cell line was tested in the same way.

H2122 = assay: Cell viability dose-response, H2122; conditions: for AC50: NCI-H2122, Table 8
Protocol: as §1, §2, §3

H1819 = assay: Cell viability dose-response, H1819
Protocol: as §1, §2, §3

[1] = Homo sapiens, NCI-H2122, Tables 3 and 4, read-out: IC50 (uM) vs indicated non-small cell lung cancer cell line H2122
[2] = Homo sapiens, 12-point dose-response starting at 50 micromolar
[3] = Homo sapiens, NCI-H1819, 12-point dose-response starting at 50 micromolar, 3-fold increments, in duplicate, read-out: toxicity data, H1819
[4] = Homo sapiens, NCI-H2122, 12-point dose-response starting at 50 micromolar, 3-fold increments, in duplicate, read-out: toxicity data, H2122

SMILES | IC50 (H1819; [3]) | IC50 (H2122; [4]) | further results
O=C(Nc1nc2c(s1)CCCC2)c1ccc(C(=O)c2ccccc2)cc1 [SW208741-1] |  |  | IC50 (HCC44; HCC44, Tables 3 and 4, read-out: IC50 (uM) vs indicated non-small cell lung cancer cell line HCC44): 3.64 µM; IC50 (H2122; [1]): 0.22 µM
O=c1c(-c2ccccn2)coc2cc(OCc3cnn(-c4ccccc4)c3)ccc12 [SW208732] |  |  | AC50 (HCC44): 49.5 µM; AC50 (H2122; [2]): ≥ 49.5 µM
O=c1c(-c2cccc(F)c2)coc2cc(OCc3cnn(-c4ccccc4)c3)ccc12 [SW208735] |  |  | AC50 (HCC44): 49.5 µM; AC50 (H2122; [2]): 0.55 µM
O=c1c(-c2ccc(F)cc2)coc2cc(OCc3cnn(-c4ccccc4)c3)ccc12 [SW208737] |  |  | AC50 (HCC44): 49.5 µM; AC50 (H2122; [2]): 0.27 µM
COc1ccc(CCNC(=O)C(=O)Nc2cc(C)cnc2Cl)cc1 [SW208144-1-A] | ≥ 49.5 µM | ≥ 49.5 µM | 
COc1ccc(CCNC(=O)C(=O)N2CCCCC2)cc1 [SW208030-1-A] | ≥ 49.5 µM | ≥ 49.5 µM | 
COc1ccc(CCNC(=O)C(=O)Nc2cc(F)ccc2Br)cc1 [SW206877-1-A] | ≥ 49.5 µM | ≥ 49.5 µM | 
COc1ccc(CCNC(=O)C(=O)N2CCOCC2)cc1 [SW208044-1-A] | ≥ 49.5 µM | ≥ 49.5 µM | 
COc1ccc(CCNC(=O)C(=O)Nc2c(C)cccc2Cl)cc1 [SW206868-1-A] | ≥ 49.5 µM | ≥ 49.5 µM | 
COc1ccc(CCNC(=O)C(=O)c2ccccc2)cc1 [SW208145-1-A] | ≥ 49.5 µM | ≥ 49.5 µM | 
O=c1c(Cc2ccc(C(F)(F)F)cc2)coc2cc(OCc3cnn(-c4ccccc4)c3)ccc12 [SW209185-1] |  |  | AC50 (H1819; Homo sapiens, NCI-H1819, Table 8, 12-point dose-response starting at 50 micromolar): 28.6 µM; AC50 (H2122; [2]): 0.085 µM
COc1ccc(CCNC(=O)C(=O)Nc2ccccc2F)cc1 [SW027962-2-A] | ≥ 49.5 µM | ≥ 49.5 µM | 
COc1ccc(CCNC(=O)C(=O)Nc2c(Cl)cccc2Cl)cc1 [SW206890-1-A] | ≥ 49.5 µM | ≥ 49.5 µM | 
COc1ccc(CCNC(=O)C(=O)Nc2cc(Cl)c(F)c(Cl)c2)cc1 [SW206889-1-A] | ≥ 49.5 µM | ≥ 49.5 µM | 
O=C(NCCc1ccccc1)C(=O)Nc1ccc(Cl)cc1 [SW113361-2-A] | ≥ 49.5 µM | ≥ 49.5 µM | 
COc1ccc(CCNC(=O)C(=O)Nc2ccccn2)cc1 [SW208122-1-A] | ≥ 49.5 µM | 45 µM | 
COc1ccc(CCNC(=O)C(=O)NCCc2ccc(OC)cc2)cc1 [SW206963-1] | ≥ 49.5 µM | ≥ 49.5 µM | 
Cc1ccc(CCNC(=O)C(=O)Nc2ccc(Cl)cc2)cc1 [SW208036-1-A] | ≥ 49.5 µM | ≥ 49.5 µM | 
COc1ccc(CCNC(=O)C(=O)NC2CCCCC2)cc1 [SW208034-1-A] | ≥ 49.5 µM | ≥ 49.5 µM | 
COc1ccc(CCNC(=O)C(=O)Nc2cc(F)ccc2Cl)cc1 [SW206862-1-A] | ≥ 49.5 µM | ≥ 49.5 µM | 
CCCOc1ccc2nc(NC(=O)c3ccc(C(=O)c4ccccc4)cc3)sc2c1 [SW208186] |  |  | IC50 (H1819; Homo sapiens, NCI-H1819, Tables 3 and 4, read-out: IC50 (uM) vs indicated non-small cell lung cancer cell line H1819): 13 µM; IC50 (H2122; [1]): 0.107 µM
COc1ccc(CCNC(=O)C(=O)N2CCCC2)cc1 [SW208049-1-A] | ≥ 49.5 µM | ≥ 49.5 µM | 
COc1ccc(CNC(=O)C(=O)NCc2ccc(Cl)cc2)cc1 [SW208026-1-A] | ≥ 49.5 µM | ≥ 49.5 µM | 
COc1ccc(CCNC(=O)C(=O)Nc2cccnc2C)cc1 [SW208143-1-A] | ≥ 49.5 µM | ≥ 49.5 µM | 
O=C(NCCc1cccc(Cl)c1)C(=O)Nc1ccc(Cl)cc1 [SW208037-1-A] | ≥ 49.5 µM | ≥ 49.5 µM | 
COc1ccc(CCNC(=O)C(=O)Nc2ccc(Cl)cc2)cc1 [SW027951-2-A] |  |  | IC50 (H1819; 12-point dose-response starting at 50 micromolar, 3-fold increments, in duplicate, read-out: toxicity data, H1819): ≥ 49.5 µM; IC50 (H2122; 12-point dose-response starting at 50 micromolar, 3-fold increments, in duplicate, read-out: toxicity data, H2122): 0.28 µM
COc1ccc(CCNC(=O)C(=O)Oc2ccccc2)cc1 [SW208147-1-A] | ≥ 49.5 µM | 2.07 µM | 
